These results are taken from publication PMC12406256, “Food Additives Inhibit Intestinal Drug Transporters but Have Limited Effect on In Vitro Drug Permeability” (Molecular Pharmaceutics, 2025).

In one data set the test system is Caco-2 cells. The data set is described as follows: in vitro. The settings on record: Caco-2.
The next data set concerns the target T1, BCRP (Homo sapiens, UniProt Q9UNQ0).
T1 sequence (Q9UNQ0 1-655): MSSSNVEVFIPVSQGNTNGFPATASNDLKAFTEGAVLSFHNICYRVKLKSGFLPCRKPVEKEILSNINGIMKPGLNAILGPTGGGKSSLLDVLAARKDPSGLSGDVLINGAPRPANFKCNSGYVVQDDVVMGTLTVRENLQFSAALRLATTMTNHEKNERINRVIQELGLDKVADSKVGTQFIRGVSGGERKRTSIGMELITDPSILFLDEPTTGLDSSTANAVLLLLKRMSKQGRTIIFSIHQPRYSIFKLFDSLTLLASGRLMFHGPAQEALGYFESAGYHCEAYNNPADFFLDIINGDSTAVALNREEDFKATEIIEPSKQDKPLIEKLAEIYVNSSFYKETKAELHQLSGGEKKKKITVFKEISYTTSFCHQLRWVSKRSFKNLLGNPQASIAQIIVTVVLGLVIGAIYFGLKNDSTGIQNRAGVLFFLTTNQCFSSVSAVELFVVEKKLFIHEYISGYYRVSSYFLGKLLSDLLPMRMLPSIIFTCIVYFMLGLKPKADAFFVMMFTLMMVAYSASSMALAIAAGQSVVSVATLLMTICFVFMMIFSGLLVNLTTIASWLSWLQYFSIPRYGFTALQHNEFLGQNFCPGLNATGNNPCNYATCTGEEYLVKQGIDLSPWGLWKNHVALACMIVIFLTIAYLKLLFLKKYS
Conditions: cited from earlier work.

On to `CC1=C(/C=C/C(C)=C/C=C/C(C)=C/C=C/C=C(C)/C=C/C=C(C)/C=C/C2=C(C)CCCC2(C)C)C(C)(C)CCC1` [beta-carotene], for which the “effect on sulfasalazine permeability (P app)” value in the data set with Caco-2 cells is “None of the selected food additives showed any effect”. Further, on BCRP, the BCRP inhibition potency result is listed as “weak inhibition potency”.
